# Activity calls are given as the source filed them.
# What was measured:
# [1] = molecular target: Voltage-dependent T-type calcium channel subunit alpha-1H (Homo sapiens, UniProt O95180); format: functional;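 also: channel activity triggered by adding a high calcium stimulation buffer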
# [2] = molecular target: Eukaryotic translation initiation factor 4E (Mus musculus, UniProt P63073); test: eIF4E–eIF4G protein interaction inhibitors, dose response, biochemical, TR-FRET (AID 855); format: functional;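 also: potency for disrupting eIF4E binding to eIF4GI seen as loss of FRET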
# [3] = A Cell Based Secondary Assay To Explore Cytotoxicity of Compounds that Sensitize Mycobacterium Tuberculosis to Beta-Lactam Antibiotics.; format: functional
# H9c2 = test: cells; format: functional, cell-based; conditions: Rattus norvegicus, H9c2, Myocardium;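 also: confirmatory concentration-response retest of ultra-high-throughput screening hits for modulation of myocardial damage; cell death induced by hydrogen peroxide oxidative stress; compound pretreatment for 60 min then peroxide exposure for 2 h; potency is for protecting the cells against peroxide damage rather than for killing them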
# Cytochrome P450 2C19 = Cytochrome P450 2C19 (Homo sapiens, UniProt P33261); test: Cytochrome panel assay with activity outcomes. Panel member name: p450-cyp2c19 Compounds with AC50 equal or less than 10 uM are considered active; format: functional; conditions: read-out: AC50
# P388/ADR = test: cells; format: functional; conditions: Mus musculus
# P388 = test: cells; format: functional; conditions: Mus musculus
# SN12K1 = test: cells; format: functional; conditions: Homo sapiens
# [4] = inhibitors of SNCA 5'UTR-driven reporter translation, confirmation, H4 neuroglioma cells, luminescence (AID 1988); format: functional, cell-based
# [5] = THP-1 cell cytotoxicity, dose response, cytotoxicity control for non-replicating M. tuberculosis project (AID 489025); format: functional
# [6] = HepG2 cell cytotoxicity, dose response, cytotoxicity control for non-replicating M. tuberculosis project (AID 489018); format: functional; conditions: Mycobacterium tuberculosis
# [7] = Luminescence Cell-Based Dose Response HTS to Identify Inhibitors of 5'UTR Stem-Loop Driven Prion Protein mRNA Translation in H4 Neuroglioblastoma Cells. [Related pubchem assays: 1827 (Project Summary), 1813 (Primary HTS)]; format: functional
# cells = format: functional
# [8] = inhibitors of firefly luciferase expression or activity, dose response, H4 neuroglioma cells, luminescence (AID 1990); format: functional, cell-based
# [9] = growth suppression of PTEN-null colon cells, dose response, cell-based, HCT116 PTEN knockout (AID 1047); format: functional;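 also: HCT116 colon tumor cells with PTEN knocked out; cells exposed to compound for 60 hours before readout; potency for loss of cell viability measured by luminescence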
# [10] = growth suppression of beta-catenin-knockout colon cells, dose response, cell-based, HCT116, human colon tumor (AID 1045); format: functional;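 also: HCT116 colon tumor cells with beta catenin knocked out; cells exposed to compound for 60 hours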
# Prothrombin = Prothrombin (Homo sapiens, UniProt P00734); test: Thrombin 1536 HTS Dose Response Confirmation. [Related pubchem assays: 1046 (Thrombin 1536 HTS; hits were confirmed in this assay)]; format: functional
# [11] = molecular target: T1, Sentrin-specific protease 8 (Homo sapiens, UniProt Q96LD8); format: functional;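 also: kinetic enzyme assay of SENP8 cleaving a Nedd8 protein substrate, dose-response confirmation of screening hits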
# T1 sequence (Q96LD8 whole entry): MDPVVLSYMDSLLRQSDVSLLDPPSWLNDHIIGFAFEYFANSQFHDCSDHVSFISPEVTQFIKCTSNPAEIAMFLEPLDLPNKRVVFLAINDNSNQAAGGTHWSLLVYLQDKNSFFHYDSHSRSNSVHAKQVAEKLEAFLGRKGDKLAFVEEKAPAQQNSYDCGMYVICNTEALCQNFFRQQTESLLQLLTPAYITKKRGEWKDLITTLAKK
# [12] = molecular target: Heat shock protein HSP 90-alpha (Homo sapiens, UniProt P07900); format: functional, organism-based
# Leucine aminopeptidase = molecular target: T2, Leucine aminopeptidase (Plasmodium falciparum 3D7, UniProt Q8IL11); test: P. falciparum M17LAP inhibitors, primary screen, biochemical, fluorogenic H-Leu-NHMec substrate, 1536-well (AID 1619); format: functional
# T2 sequence (Q8IL11 whole entry): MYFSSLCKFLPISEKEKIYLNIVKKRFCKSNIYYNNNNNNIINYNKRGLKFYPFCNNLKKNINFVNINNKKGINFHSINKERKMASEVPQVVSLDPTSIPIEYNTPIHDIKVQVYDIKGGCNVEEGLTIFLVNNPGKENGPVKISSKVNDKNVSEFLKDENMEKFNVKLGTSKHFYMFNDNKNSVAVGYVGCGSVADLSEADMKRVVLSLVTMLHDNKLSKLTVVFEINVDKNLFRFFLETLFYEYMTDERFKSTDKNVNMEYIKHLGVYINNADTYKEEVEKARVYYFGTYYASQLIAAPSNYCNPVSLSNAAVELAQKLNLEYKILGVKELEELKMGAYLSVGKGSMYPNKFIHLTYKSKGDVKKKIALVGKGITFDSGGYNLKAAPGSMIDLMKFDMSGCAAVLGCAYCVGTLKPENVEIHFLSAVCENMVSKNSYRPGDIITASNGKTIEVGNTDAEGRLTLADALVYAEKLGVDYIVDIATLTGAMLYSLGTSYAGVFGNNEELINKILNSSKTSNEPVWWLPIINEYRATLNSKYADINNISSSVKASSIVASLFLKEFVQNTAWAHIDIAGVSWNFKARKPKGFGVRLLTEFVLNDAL
# Protein RecA = molecular target: T3, Protein RecA (Mycobacterium tuberculosis, UniProt P9WHJ3); test: Fluorescence Cell-Free Homogeneous Dose Retest to Identify Inhibitors of RecA-Intein Splicing Activity. [Related pubchem assays (depositor defined):AID2097, AID2223, AID489010, AID492950]; format: functional
# T3 sequence (P9WHJ3 whole entry): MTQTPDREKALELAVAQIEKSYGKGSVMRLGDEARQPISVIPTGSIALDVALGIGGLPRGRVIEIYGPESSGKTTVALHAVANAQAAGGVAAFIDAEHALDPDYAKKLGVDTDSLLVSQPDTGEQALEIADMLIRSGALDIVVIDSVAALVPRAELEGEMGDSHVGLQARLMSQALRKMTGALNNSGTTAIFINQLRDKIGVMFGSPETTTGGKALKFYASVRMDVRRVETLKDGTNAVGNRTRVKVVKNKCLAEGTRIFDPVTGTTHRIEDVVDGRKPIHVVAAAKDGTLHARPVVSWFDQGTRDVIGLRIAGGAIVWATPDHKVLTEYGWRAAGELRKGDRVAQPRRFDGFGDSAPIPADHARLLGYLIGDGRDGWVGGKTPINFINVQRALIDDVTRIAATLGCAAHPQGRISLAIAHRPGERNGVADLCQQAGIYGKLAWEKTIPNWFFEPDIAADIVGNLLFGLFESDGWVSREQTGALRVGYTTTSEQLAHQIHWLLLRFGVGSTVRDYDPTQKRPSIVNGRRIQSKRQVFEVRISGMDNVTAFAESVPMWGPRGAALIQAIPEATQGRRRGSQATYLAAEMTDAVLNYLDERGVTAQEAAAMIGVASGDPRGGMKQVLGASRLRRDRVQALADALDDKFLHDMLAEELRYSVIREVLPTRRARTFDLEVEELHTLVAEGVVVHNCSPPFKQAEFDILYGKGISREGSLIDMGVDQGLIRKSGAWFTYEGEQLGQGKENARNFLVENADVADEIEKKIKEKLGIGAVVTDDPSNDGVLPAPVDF
# [13] = molecular target: T4, Replicative DNA helicase DnaB (Mycobacterium tuberculosis, UniProt P9WMR3); test: DnaB intein splicing inhibitors, dose response, biochemical, cell-free fluorescence (AID 449749); format: functional
# T4 sequence (P9WMR3 whole entry): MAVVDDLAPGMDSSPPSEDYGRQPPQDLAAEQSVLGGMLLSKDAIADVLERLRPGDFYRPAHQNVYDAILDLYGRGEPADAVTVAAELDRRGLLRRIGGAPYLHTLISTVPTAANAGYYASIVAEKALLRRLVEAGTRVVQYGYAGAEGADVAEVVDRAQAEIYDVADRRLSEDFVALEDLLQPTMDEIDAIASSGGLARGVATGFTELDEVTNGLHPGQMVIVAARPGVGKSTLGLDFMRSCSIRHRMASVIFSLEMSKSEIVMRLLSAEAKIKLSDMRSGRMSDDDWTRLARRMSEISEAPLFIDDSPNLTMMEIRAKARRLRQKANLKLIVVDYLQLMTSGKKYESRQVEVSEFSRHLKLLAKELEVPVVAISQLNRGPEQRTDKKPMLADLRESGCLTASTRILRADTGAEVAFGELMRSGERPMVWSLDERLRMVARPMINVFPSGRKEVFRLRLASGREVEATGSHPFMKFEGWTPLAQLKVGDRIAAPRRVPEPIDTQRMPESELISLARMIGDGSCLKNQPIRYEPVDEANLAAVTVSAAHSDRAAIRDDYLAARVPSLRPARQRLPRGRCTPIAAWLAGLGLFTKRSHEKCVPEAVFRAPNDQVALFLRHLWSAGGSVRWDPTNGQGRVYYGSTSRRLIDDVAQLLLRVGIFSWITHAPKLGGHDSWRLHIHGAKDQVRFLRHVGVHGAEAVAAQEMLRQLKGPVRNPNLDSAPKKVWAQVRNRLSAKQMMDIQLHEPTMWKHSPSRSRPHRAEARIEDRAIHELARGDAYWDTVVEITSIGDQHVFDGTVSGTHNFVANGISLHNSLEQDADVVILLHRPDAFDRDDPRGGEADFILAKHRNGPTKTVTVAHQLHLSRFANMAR
# [14] = miR-122 activators in hepatoma reporter cells, dose response, cell-based, Huh7 psiCHECK-miR122, Renilla luciferase, cherry-picked (AID 651956); format: functional;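 also: huh7 hepatoma cells stably carrying a psiCHECK-2 miR-122 sensor plasmid; renilla luciferase signal reporting endogenous miR-122 activity after 48 h compound exposure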
# [15] = HEK293T cytotoxicity, dose response, cytotoxicity control for miR-122 modulator project, cell-based, activator set, cherry-pick (AID 720690); format: functional;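 also: HEK293T human cells scored for general mammalian cytotoxicity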
# [16] = off-target signal loss in HeLa-CEM21 co-culture – HeLa F-luc CTL cells, cherry-picked, counter-screen for HIV-1 Env fusion inhibitor project, dose response (AID 652040); format: functional, cell-based;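 also: potency for signal decrease marking cytotoxic or nonspecific inhibition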
# [17] = inhibitors of clade B AD8 Env fusion, dose response, cell-based, cherry-pick (AID 652062); format: functional;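 also: luciferase signal from cell-cell fusion driven by HIV-1 clade B AD8 Env; potency is for inhibitors of fusion seen as a drop in luminescence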
# [18] = HEp-2 cell cytotoxicity, dose response, cytotoxicity control for RSV inhibitor project, HTS (AID 2410); format: functional; conditions: human respiratory syncytial virus
# Voltage-dependent T-type calcium channel subunit alpha-1H, sequence (O95180 whole entry): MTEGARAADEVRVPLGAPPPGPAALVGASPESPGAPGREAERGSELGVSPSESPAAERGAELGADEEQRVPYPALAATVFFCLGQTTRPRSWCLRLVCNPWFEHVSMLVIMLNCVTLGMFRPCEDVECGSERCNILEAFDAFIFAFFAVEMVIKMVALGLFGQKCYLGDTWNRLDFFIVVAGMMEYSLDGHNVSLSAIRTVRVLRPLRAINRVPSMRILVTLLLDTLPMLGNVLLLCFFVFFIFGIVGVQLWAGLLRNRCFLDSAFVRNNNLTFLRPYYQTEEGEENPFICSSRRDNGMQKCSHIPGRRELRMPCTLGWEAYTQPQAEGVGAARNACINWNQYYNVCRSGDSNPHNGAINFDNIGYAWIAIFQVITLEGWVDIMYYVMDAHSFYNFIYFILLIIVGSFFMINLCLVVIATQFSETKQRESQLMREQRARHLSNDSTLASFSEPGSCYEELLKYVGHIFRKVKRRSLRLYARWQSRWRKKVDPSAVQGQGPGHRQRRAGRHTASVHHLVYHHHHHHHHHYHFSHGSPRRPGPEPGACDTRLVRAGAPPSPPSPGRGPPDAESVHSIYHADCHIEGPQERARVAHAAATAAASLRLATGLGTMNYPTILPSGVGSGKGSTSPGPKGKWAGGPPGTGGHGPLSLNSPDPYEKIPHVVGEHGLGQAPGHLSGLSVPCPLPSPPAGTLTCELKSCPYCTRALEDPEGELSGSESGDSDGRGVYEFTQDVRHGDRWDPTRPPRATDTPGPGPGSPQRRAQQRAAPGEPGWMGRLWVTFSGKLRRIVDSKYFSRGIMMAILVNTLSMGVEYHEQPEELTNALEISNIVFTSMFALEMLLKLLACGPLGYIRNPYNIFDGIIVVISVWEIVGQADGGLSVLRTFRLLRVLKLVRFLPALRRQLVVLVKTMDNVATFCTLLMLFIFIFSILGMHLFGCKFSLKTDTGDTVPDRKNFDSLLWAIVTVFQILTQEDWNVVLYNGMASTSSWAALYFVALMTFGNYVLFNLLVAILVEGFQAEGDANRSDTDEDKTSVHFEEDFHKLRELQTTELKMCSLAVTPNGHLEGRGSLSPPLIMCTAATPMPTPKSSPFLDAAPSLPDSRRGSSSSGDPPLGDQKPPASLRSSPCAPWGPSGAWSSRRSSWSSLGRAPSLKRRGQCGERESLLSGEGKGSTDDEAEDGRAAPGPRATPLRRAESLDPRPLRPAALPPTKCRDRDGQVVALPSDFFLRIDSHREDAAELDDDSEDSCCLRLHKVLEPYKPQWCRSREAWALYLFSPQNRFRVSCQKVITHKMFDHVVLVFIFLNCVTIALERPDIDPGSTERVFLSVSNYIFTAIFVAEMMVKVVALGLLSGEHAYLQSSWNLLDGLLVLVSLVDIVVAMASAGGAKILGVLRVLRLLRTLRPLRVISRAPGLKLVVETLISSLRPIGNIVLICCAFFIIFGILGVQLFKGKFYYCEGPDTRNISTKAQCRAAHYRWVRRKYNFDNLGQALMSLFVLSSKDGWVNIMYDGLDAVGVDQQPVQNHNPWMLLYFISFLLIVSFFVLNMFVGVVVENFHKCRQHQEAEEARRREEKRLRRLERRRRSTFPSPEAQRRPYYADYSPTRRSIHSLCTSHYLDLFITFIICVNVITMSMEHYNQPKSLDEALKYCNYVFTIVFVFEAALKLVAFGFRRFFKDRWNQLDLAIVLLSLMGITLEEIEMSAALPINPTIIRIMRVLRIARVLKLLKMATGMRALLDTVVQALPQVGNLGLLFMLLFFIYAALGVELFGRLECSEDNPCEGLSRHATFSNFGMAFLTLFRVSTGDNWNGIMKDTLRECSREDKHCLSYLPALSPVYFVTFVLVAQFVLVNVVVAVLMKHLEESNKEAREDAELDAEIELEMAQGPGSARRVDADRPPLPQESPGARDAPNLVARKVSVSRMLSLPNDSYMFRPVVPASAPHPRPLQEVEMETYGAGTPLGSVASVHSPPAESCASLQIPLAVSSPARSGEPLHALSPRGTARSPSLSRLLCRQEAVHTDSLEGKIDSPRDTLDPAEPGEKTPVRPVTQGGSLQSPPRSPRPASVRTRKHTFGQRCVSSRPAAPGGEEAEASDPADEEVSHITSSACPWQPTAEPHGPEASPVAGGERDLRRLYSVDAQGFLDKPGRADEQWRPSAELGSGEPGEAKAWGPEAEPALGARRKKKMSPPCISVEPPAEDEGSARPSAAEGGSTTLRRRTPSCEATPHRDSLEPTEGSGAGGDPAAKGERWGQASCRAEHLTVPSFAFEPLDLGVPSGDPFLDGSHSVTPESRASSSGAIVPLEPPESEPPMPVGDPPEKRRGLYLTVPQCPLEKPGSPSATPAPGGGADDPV
# Eukaryotic translation initiation factor 4E, sequence (P63073 whole entry): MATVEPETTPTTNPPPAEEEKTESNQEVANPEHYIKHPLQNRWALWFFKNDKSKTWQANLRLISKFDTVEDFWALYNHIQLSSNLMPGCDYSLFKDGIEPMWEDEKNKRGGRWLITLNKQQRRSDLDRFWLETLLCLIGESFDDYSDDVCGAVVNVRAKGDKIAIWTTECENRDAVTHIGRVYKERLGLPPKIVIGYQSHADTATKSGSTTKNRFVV
# Cytochrome P450 2C19, sequence (P33261 whole entry): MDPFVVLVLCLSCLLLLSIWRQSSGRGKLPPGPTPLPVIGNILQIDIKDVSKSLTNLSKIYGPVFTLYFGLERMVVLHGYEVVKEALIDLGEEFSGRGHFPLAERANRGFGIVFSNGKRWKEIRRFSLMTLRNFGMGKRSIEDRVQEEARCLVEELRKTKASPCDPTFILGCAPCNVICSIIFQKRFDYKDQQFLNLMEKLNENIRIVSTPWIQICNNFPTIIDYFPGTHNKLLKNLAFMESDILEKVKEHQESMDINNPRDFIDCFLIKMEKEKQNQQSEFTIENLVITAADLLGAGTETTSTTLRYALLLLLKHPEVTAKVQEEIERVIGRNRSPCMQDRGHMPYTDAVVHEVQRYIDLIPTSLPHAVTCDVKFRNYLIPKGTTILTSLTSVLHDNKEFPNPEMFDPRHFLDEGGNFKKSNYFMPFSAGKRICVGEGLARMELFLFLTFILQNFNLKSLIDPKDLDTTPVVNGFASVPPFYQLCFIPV
smiles,measurement,setting,value
O=C1CC(SCCc2nc3ccccc3[nH]2)C(=O)N1c1ccc(Cl)cc1 (stereo not given),EC50,[1],613 µM (active)
Nc1ccc(S(=O)(=O)N2CCCc3ccccc32)cc1,IC50,[2],> 64 µM (inactive)
CCOC(=O)[C@H]1[C@H]2COc3ccc(Br)cc3[C@@H]2N2C(=O)c3cc(OC)c(OC)cc3NC(=O)[C@@]12C,CC50,[3],> 40 µM (active)
same,IC50,H9c2,15.5 µM (active)
Cc1c2cnccc2c(C)c2c1c1ccccc1n2CCOC(=O)c1ccccc1,AC50,Cytochrome P450 2C19,0.794 µM (inconclusive)
same,GI50,P388/ADR,9.23 µM (inactive)
same,GI50,P388,4.95 µM (inactive)
same,GI50,SN12K1,10.3 µM (inactive)
CCCOc1ccc(CCC(=O)N/N=C/c2ccc([N+](=O)[O-])o2)cc1,EC50,[4],> 120 µM (not active)
same,CC50,[5],13.1 µM (active)
same,CC50,[6],19.3 µM (active)
same,EC50,[7],> 120 µM (not active)
same,IC50,cells,5.03 µM (active)
same,EC50,[8],> 120 µM (not active)
CCOC(=O)c1c(NC(=S)NC(=O)c2ccc(Cn3cc(Cl)cn3)o2)sc2c1CCC(C)C2 (stereo not given),CC50,[3],12.2 µM (active)
same,EC50,[9],5.87 µM (active)
same,EC50,[10],6.18 µM (active)
Cc1ccc(C(=O)n2cnnc2N)cc1C,IC50,Prothrombin,1.87 µM (active)
NC(=O)c1ccc(/N=C/c2ccc([N+](=O)[O-])s2)cc1,CC50,[5],19.2 µM (active)
same,IC50,[11],2.47 µM (active)
same,AC50,[12],1.98 µM (active)
same,EC50,[9],5.94 µM (active)
same,IC50,cells,13.4 µM (active)
same,EC50,[10],5.3 µM (active)
CC(C)NC(=O)c1ccc(C(C)C)cc1,IC50,Prothrombin,> 50 µM (not active)
COc1ccc(NC(=O)c2ccco2)cc1NC(=O)c1cccc(OC(C)C)c1,EC50,[1],8.24 µM (active)
O=C(NCCc1csc(-c2ccc(C(F)(F)F)cc2)n1)c1cccs1,EC50,[1],4.14 µM (active)
COc1ccc(CC(CC(=O)O)C(=O)Nc2ccccc2)cc1 (stereo not given),IC50,Leucine aminopeptidase,47.2 µM (active)
CCCCCCCN(C(=O)CCl)c1ccccc1C,CC50,[3],2.82 µM (active)
same,EC50,Protein RecA,0.893 µM (active)
same,AC50,[13],7.86 µM (active)
CCc1cccc(NC(=O)C[S+]([O-])Cc2nc(-c3ccc(C)cc3)oc2C)c1 (stereo not given),EC50,[1],3.17 µM (active)
C/C=C/c1ccc2c(c1)O[C@@H](CN(C)CC1CCCC1)[C@H](C)CN([C@@H](C)CO)S2(=O)=O,AC50,[14],42.1 µM (active)
same,AC50,[15],22.4 µM (active)
O=C(Nc1c(-c2ccccc2)[nH][nH]c1=O)c1cnccn1,IC50,[11],42.5 µM (active)
Cc1ccc(C)c(S(=O)(=O)NCCCN2CCOCC2)c1,IC50,Prothrombin,> 50 µM (not active)
Cn1c(SCc2nc(-c3ccc(Cl)cc3)no2)nnc1-c1cccs1,AC50,[16],3.1 µM (active)
same,AC50,[17],9.06 µM (active)
COc1ccc(-c2nn(-c3ccccc3)cc2C(=O)Nc2nccs2)cc1OC,CC50,[3],32 µM (active)
CCCOc1cccc(C(=O)N(Cc2ccco2)C2CCS(=O)(=O)C2)c1 (stereo not given),IC50,Prothrombin,> 50 µM (not active)
OC(c1cc(C(F)(F)F)nc2c(Cl)cc(Cl)cc12)C1CCCCN1 (stereo not given),AC50,[14],21.6 µM (active)
same,CC50,[18],15.8 µM (active)
Cc1ccc(S(=O)(=O)Nc2nc3c(s2)C(=O)CC(C)(C)C3)cc1,IC50,Leucine aminopeptidase,94.4 µM (active)
C[C@@H]1CN([C@@H](C)CO)C(=O)c2cccc(NC(=O)c3ccc(-c4nccs4)cc3)c2O[C@H]1CN(C)Cc1ccc2c(c1)OCO2,AC50,[15],25.6 µM (active)
O=C(NC1CCCCC1)N(Cc1ccccc1)Cc1ccco1,EC50,[1],3.68 µM (active)

# Reference: ChEMBL document CHEMBL1201862, “PubChem BioAssay data set” (2004)
